Experimental data as given in US9011965B2, “Gradient coating for biomedical applications” (Smith & Nephew, Inc., priority 2008, dated 2015).

Assay: release of bupivacaine from coated samples in PBS, spectrophotometry at 265 nm
Type: physicochemical
Conditions: released from coated samples, 3 mL PBS, 37° C.
Protocol: The release of Ag, Ca, and Bupivacaine from the prepared coating was confirmed by ICP analysis and UV spectrometry, respectively. The coated samples were immersed in 3 mL PBS for 24 and 48 hours at 37° C. At each time point, the release of bupivacaine was measured spectrophotometrically (Nanodrop, Thermo) at 265 nm. The Bupivacaine standard was prepared by dissolving appropriate amounts of the drug in PBS. PBS was used as blank.

CCCCN1CCCCC1C(=O)Nc1c(C)cccc1C (centres unmarked) [Bupivacaine]
Bupivacaine Concentration in PBS (24 hours): 126 ppm | Bupivacaine Concentration in PBS (48 hours): 141 ppm
